Measured values taken from PubChem BioAssay (NCI).
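Results reflect a 48-hour exposure of cells in 96-well plates to compound at five concentrations. TGI: concentration producing complete growth inhibition.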

Assays:
Assay in all cases: NCI tumour cell line growth inhibition, 48 h
[1] = system: PC-3 prostate
[2] = system: HL-60(TB) leukemia
[3] = system: CCRF-CEM leukemia
[4] = system: LOX IMVI melanoma
[5] = system: M14 melanoma
[6] = system: SR leukemia
[7] = system: KM12 colon
[8] = system: NCI-H23 lung
[9] = system: XF 498 CNS
[10] = system: MDA-N
[11] = system: A498 renal
[12] = system: NCI-H522 lung
[13] = system: HCC-2998 colon
[14] = system: NCI-H226 lung
[15] = system: HS 578T breast
[16] = system: HCT-15 colon
[17] = system: HOP-92 NSCLC
[18] = system: MOLT-4 leukemia
[19] = system: SN12C renal
[20] = system: U251 CNS
[21] = system: ACHN renal
[22] = system: 786-0 renal
[23] = system: MDA-MB-231 breast
[24] = system: A549 NSCLC
[25] = system: HOP-62 NSCLC
[26] = system: SF-268 CNS
[27] = system: OVCAR-5 ovarian
[28] = system: HOP-18 NSCLC
[29] = system: SW-620 colon
[30] = system: LXFL 529 NSCLC
[31] = system: KM20L2 colon
[32] = system: UACC-257 melanoma
[33] = system: HCT-116 colon
[34] = system: M19-MEL melanoma
[35] = system: RXF 393 renal
[36] = system: RPMI-8226 leukemia
[37] = system: MDA-MB-435
[38] = system: NCI-H460 lung
[39] = system: K-562 leukemia
[40] = system: OVCAR-3 ovarian
[41] = system: DLD-1 colon
[42] = system: MALME-3M melanoma
[43] = system: EKVX NSCLC
[44] = system: CAKI-1 renal
[45] = system: SK-MEL-2 melanoma
[46] = system: COLO 205 colon
[47] = system: TK-10 renal
[48] = system: SF-295 CNS
[49] = system: SNB-75 CNS
[50] = system: OVCAR-8 ovarian
[51] = system: SK-OV-3 ovarian
[52] = system: SK-MEL-28 melanoma
[53] = system: DMS 273 small cell lung
[54] = system: NCI/ADR-RES ovarian
[55] = system: RXF-631 renal
[56] = system: SF-539 CNS
[57] = system: UO-31 renal
[58] = system: SNB-19 CNS

`C=C1C(=O)C23C(O)CC4C(C)(C)CCC(O)C4(C)C2CC(OC(C)=O)C1[C@H]3O` (stereo partly drawn) gave a TGI [1] of 23.7 µM, a TGI [2] of 3.53 µM and a TGI [3] of 2700 nM. It also gave a TGI [4] of 15.8 µM, a TGI [5] of 12.1 µM and a TGI [6] of over 41.1 µM. The TGI [7] was 31.1 µM, the TGI [8] was 8.38 µM and the TGI [9] was 3.33 µM. The TGI [10] was 20.6 µM, the TGI [11] was 30.9 µM and the TGI [12] was 638 nM. It also gave a TGI [13] of 14.8 µM, a TGI [14] of 28.1 µM and a TGI [15] of 53.7 µM. For the same molecule, the TGI [16] was 6 µM, the TGI [17] was 7.01 µM and the TGI [18] was 8.08 µM. It also gave a TGI [19] of 12 µM, a TGI [20] of 22.8 µM and a TGI [21] of 8.94 µM. For the same molecule, the TGI [22] was 6.82 µM, the TGI [23] was 14.6 µM and the TGI [24] was 13.7 µM. For the same molecule, the TGI [25] was 28.2 µM, the TGI [26] was 22.1 µM and the TGI [27] was 21.5 µM. It also gave a TGI [28] of 3.82 µM, a TGI [29] of 2530 nM and a TGI [30] of 2410 nM. It also gave a TGI [31] of 11.1 µM, a TGI [32] of 8.38 µM and a TGI [33] of 5.88 µM. It also gave a TGI [34] of 3.22 µM, a TGI [35] of 5.26 µM and a TGI [36] of over 32 µM. It also gave a TGI [37] of 21.4 µM, a TGI [38] of 6.65 µM and a TGI [39] of 10.1 µM. For the same molecule, the TGI [40] was 19 µM, the TGI [41] was 4.65 µM and the TGI [42] was 9.42 µM. For the same molecule, the TGI [43] was 16.8 µM, the TGI [44] was 9.39 µM and the TGI [45] was 5.3 µM. The TGI [46] was 5.3 µM, the TGI [47] was 3.72 µM and the TGI [48] was 21.6 µM. For the same molecule, the TGI [49] was 22.7 µM, the TGI [50] was 2830 nM and the TGI [51] was 41.4 µM. The TGI [52] was 8.19 µM, the TGI [53] was 3.79 µM and the TGI [54] was 42.9 µM. For the same molecule, the TGI [55] was 15.7 µM, the TGI [56] was 9.45 µM and the TGI [57] was 29.7 µM. The TGI [58] was 30.9 µM.
